The target in test [1] is Kif5b-RET fusion protein in HEK-293 cells (Homo sapiens, UniProt P07949). The experiment in a line: cell-based.
The target in test [2] is human KDR protein in HEK-293 cells (Homo sapiens (Human), UniProt P35968). As to the kind of experiment: KDR Cell Assay (phospho-KDR in HEK-293 cells expressing inducible KDR). In kind it is cell-based. To be noted: pKDR Cell HEK 10% FBS IC50, HEK-293 cells expressing inducible KDR, VEGF stimulated. A digest of the protocol: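 HEK-293 cells with inducible human KDR were treated with compound for 1 h in DMEM (0.25% DMSO final), then lysed. Phospho-KDR was quantified by Meso Scale immunoassay, expressed as percent of control, and IC50 taken where a 4-parameter logistic fit crossed 50 POC.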
Sequence of human KDR protein in HEK-293 cells (P35968 20-1356): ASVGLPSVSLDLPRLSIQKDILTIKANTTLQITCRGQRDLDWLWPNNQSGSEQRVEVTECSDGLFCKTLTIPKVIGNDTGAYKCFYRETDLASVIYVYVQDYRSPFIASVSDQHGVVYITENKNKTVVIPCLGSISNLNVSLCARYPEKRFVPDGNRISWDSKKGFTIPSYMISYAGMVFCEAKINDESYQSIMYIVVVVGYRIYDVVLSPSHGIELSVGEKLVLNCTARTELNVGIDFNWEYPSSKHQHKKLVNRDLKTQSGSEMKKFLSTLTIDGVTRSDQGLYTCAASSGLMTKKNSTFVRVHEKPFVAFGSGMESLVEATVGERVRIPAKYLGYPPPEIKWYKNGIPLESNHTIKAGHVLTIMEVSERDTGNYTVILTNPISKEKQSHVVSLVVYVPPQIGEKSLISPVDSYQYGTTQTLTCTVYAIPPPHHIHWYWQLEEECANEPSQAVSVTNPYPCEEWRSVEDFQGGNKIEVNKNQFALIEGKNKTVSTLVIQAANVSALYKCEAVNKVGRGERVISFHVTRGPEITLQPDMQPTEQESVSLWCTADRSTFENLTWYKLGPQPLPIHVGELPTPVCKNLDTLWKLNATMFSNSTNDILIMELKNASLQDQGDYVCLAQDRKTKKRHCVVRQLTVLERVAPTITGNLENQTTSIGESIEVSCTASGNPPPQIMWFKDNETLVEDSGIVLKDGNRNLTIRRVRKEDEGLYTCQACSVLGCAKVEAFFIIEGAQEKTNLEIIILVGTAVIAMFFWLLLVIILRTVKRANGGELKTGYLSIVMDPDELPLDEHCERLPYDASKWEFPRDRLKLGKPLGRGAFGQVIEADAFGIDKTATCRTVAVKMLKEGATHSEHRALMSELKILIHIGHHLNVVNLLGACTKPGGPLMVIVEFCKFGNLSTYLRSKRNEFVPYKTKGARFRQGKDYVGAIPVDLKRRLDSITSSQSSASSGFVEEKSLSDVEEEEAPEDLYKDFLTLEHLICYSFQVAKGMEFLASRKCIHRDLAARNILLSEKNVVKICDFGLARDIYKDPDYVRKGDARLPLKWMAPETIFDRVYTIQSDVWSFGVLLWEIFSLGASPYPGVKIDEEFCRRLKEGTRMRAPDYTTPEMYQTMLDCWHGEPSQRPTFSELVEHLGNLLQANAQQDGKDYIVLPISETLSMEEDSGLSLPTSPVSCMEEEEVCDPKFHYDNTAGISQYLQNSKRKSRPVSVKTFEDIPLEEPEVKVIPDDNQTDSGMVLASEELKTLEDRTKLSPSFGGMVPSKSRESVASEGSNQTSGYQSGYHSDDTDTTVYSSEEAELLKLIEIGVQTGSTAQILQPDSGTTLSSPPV

Test [3] deals with N-terminal GST tagged recombinant human RET cytoplasmic domain (aa 658-end), wild type RET kinase (Homo sapiens (Human), UniProt P07949). As to the kind of experiment: RET Enzyme Assay (HTRF KinEASE-TK), wild type RET. In kind it is biochemical. In general terms: Time-resolved FRET reads energy transfer from a long-lived donor to a nearby acceptor.
Sequence of N-terminal GST tagged recombinant human RET cytoplasmic domain (aa 658-end), wild type RET kinase (P07949 658-1114): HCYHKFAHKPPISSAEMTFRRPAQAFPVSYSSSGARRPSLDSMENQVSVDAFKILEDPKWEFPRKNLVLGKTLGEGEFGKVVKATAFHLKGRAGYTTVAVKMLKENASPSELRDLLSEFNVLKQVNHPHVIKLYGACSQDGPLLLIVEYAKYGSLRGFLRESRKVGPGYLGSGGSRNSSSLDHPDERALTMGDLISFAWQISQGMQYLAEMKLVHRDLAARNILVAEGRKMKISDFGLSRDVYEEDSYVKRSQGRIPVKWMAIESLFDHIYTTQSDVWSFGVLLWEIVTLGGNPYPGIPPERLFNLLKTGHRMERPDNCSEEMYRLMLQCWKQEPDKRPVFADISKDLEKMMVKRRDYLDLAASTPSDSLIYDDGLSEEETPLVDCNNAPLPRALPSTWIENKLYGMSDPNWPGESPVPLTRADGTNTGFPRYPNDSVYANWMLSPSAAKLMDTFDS
Where [4] appears, read: HEK-293 cells expressing Kif5b-RET, read-out: KIF5B-RET pTYR1062 Cell IC50.
Setting [5] is: HEK-293 cells expressing Kif5b-RET, phospho-RET(Tyr1062), read-out: KIF5B-RET pTYR1062 Cell IC50.

Molecules are shown by their SMILES. Counter-ions that a name gives are not always drawn. Like-named read-outs stand apart in the source and are kept apart here.

As a reminder, the IC50 is the midpoint of a concentration-inhibition curve.

Sequence of Kif5b-RET fusion protein in HEK-293 cells (P07949 29-1114 limits assumed): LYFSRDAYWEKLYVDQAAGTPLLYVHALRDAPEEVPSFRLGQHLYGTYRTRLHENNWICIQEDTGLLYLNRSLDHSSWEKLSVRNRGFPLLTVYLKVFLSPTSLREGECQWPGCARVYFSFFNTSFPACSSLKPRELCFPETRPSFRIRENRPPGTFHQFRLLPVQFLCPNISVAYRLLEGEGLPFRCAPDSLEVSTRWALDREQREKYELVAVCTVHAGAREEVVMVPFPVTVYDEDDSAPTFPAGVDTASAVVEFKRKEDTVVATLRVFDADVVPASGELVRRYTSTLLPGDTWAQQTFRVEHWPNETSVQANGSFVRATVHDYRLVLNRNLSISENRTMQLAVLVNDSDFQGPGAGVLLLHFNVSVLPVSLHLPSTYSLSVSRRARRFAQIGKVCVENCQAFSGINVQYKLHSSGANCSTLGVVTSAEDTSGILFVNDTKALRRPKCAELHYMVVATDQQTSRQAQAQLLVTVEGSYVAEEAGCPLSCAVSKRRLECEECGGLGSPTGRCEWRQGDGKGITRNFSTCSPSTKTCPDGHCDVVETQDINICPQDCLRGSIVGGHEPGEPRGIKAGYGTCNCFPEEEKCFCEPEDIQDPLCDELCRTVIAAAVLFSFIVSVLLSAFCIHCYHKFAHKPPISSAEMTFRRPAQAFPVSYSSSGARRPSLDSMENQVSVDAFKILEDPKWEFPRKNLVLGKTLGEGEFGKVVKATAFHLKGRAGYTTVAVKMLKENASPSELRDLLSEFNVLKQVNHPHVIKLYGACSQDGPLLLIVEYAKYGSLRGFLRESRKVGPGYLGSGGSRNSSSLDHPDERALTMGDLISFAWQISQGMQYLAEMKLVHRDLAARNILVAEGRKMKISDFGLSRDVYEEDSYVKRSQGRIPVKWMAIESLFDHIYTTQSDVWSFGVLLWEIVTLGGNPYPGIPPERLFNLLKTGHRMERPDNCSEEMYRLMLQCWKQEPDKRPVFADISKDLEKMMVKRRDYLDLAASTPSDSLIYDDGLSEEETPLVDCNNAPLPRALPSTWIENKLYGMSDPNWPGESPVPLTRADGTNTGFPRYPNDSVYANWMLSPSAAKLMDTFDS

As for `COC(C)(C)CN1CCN(c2ccc(-c3cc(-c4cnn(C)c4)cn4ncc(C#N)c34)cn2)CC1` [Example 414, 4-(6-(4-(2-methoxy-2-methylpropyl)piperazin-1-yl)pyridin-3-yl)-6-(1-methyl-1H-pyrazol-4-yl)pyrazolo[1,5-a]pyridine-3-carbonitrile], the IC50 is 41.5 nM in test [1] (setting [4]); 2280 nM in test [2]; 41.3 nM in test [3] (wild type RET, 1 mM ATP).
Take `CC(C)CN(C)C(=O)C1CCN(c2ccc(-c3cc(-c4cnn(C)c4)cn4ncc(C#N)c34)cn2)CC1` [Example 244, 1-(5-(3-cyano-6-(1-methyl-1H-pyrazol-4-yl)pyrazolo[1,5-a]pyridin-4-yl)pyridin-2-yl)-N-isobutyl-N-methylpiperidine-4-carboxamide]: the IC50 in test [1] (setting [5]) is 69.2 nM; in test [2] (10% FBS), 660 nM; in test [3] (wild type RET, 1 mM ATP), 20.9 nM.
On to `CC(C)CNC(=O)N1CCN(c2ccc(-c3cc(-c4cnn(C)c4)cn4ncc(C#N)c34)cn2)CC1` [Example 133, 4-(5-(3-cyano-6-(1-methyl-1H-pyrazol-4-yl)pyrazolo[1,5-a]pyridin-4-yl)pyridin-2-yl)-N-isobutylpiperazine-1-carboxamide], for which the IC50 in test [1] (setting [5]) was 1.7 nM; in test [2] (10% FBS), 147 nM; in test [3] (wild type RET, 1 mM ATP) it was 4.3 nM.
`Cn1cc(-c2cc(-c3ccc(N4CCC(C)(C(=O)NCCC(F)(F)F)CC4)nc3)c3c(C#N)cnn3c2)cn1` [Example 250, 1-(5-(3-cyano-6-(1-methyl-1H-pyrazol-4-yl)pyrazolo[1,5-a]pyridin-4-yl)pyridin-2-yl)-4-methyl-N-(3,3,3-trifluoropropyl)piperidine-4-carboxamide]: the IC50 in test [1] (setting [5]) came out at 6.1 nM; in test [2] (10% FBS), 468 nM; in test [3] (wild type RET, 1 mM ATP), 7 nM.
For the compound `CC(C)NC(=O)C1CCN(c2ccc(-c3cc(-c4cnn(C)c4)cn4ncc(C#N)c34)cn2)CC1` [Example 246, 1-(5-(3-cyano-6-(1-methyl-1H-pyrazol-4-yl)pyrazolo[1,5-a]pyridin-4-yl)pyridin-2-yl)-N-isopropylpiperidine-4-carboxamide], the IC50 in test [1] (setting [5]) amounted to 13.6 nM; in test [2] (10% FBS), 949 nM; in test [3] (wild type RET, 1 mM ATP) it was 12 nM.
For the compound `COCC(C)NC(=O)C1CCN(c2ccc(-c3cc(-c4cnn(C)c4)cn4ncc(C#N)c34)cn2)CC1` (stereo not drawn) [Example 232, 1-(5-(3-cyano-6-(1-methyl-1H-pyrazol-4-yl)pyrazolo[1,5-a]pyridin-4-yl)pyridin-2-yl)-N-(1-methoxypropan-2-yl)piperidine-4-carboxamide], the IC50 worked out at 24.4 nM in test [1] (setting [5]); 812 nM in test [2] (10% FBS); 12.1 nM in test [3] (wild type RET, 1 mM ATP).
As for `Cn1cc(-c2cc(-c3ccc(N4CCC(S(C)(=O)=O)CC4)nc3)c3c(C#N)cnn3c2)cn1` [Example 567, 6-(1-methyl-1H-pyrazol-4-yl)-4-(6-(4-(methylsulfonyl)piperidin-1-yl)pyridin-3-yl)pyrazolo[1,5-a]pyridine-3-carbonitrile], the IC50 in test [1] worked out at 4.9 nM; in test [2], 198 nM; in test [3] (wild type RET, 1 mM ATP), 3.1 nM.
As for `CCC1(C(=O)N[C@H](C)C(F)(F)F)CCN(c2ccc(-c3cc(-c4cnn(C)c4)cn4ncc(C#N)c34)cn2)CC1` [Example 257, (R)-1-(5-(3-cyano-6-(1-methyl-1H-pyrazol-4-yl)pyrazolo[1,5-a]pyridin-4-yl)pyridin-2-yl)-4-ethyl-N-(1,1,1-trifluoropropan-2-yl)piperidine-4-carboxamide], the IC50 was 9.3 nM in test [1] (setting [5]); 1350 nM in test [2] (10% FBS); 14.9 nM in test [3] (wild type RET, 1 mM ATP).
Take `CC(C)NS(=O)(=O)C1CCN(c2ccc(-c3cc(-c4cnn(C)c4)cn4ncc(C#N)c34)cn2)CC1` [Example 569, 1-(5-(3-cyano-6-(1-methyl-1H-pyrazol-4-yl)pyrazolo[1,5-a]pyridin-4-yl)pyridin-2-yl)-N-isopropylpiperidine-4-sulfonamide]: the IC50 in test [1] (setting [4]) worked out at 2.8 nM; in test [2], 2.2 nM; in test [3] (wild type RET, 1 mM ATP), 6.2 nM.
Regarding `CC(C)CC(=O)N1CCN(c2ccc(-c3cc(-c4cnn(C(F)F)c4)cn4ncc(C#N)c34)cn2)CC1` [Example 267, 6-(1-(difluoromethyl)-1H-pyrazol-4-yl)-4-(6-(4-(3-methylbutanoyl)piperazin-1-yl)pyridin-3-yl)pyrazolo[1,5-a]pyridine-3-carbonitrile], the concentration for half-maximal inhibition (IC50) in test [1] (setting [5]) turned out to be 13.6 nM; in test [2] (10% FBS) it was 2760 nM; in test [3] (wild type RET, 1 mM ATP), 11 nM.
`CN(C)C(=O)CCN1CCN(c2ccc(-c3cc(-c4cnn(C)c4)cn4ncc(C#N)c34)cn2)CC1` [Example 146, 3-(4-(5-(3-cyano-6-(1-methyl-1H-pyrazol-4-yl)pyrazolo[1,5-a]pyridin-4-yl)pyridin-2-yl)piperazin-1-yl)-N,N-dimethylpropanamide 2,2,2-trifluoroacetate]: the IC50 in test [1] (read-out: KIF5B-RET pTYR1062 Cell IC50) came to 29 nM; in test [2] (10% FBS), 736 nM; in test [3] (wild type RET, 1 mM ATP), 12.3 nM.
Regarding `COCC(=O)N1CCN(c2ccc(-c3cc(-c4cnn(C)c4)cn4ncc(Cl)c34)cn2)CC1` [Example 329, 1-(4-(5-(3-chloro-6-(1-methyl-1H-pyrazol-4-yl)pyrazolo[1,5-a]pyridin-4-yl)pyridin-2-yl)piperazin-1-yl)-2-methoxyethanone], the IC50 in test [1] (setting [5]) was 45.6 nM; in test [2] (10% FBS) it was 381 nM; in test [3] (wild type RET, 1 mM ATP), 23.2 nM.
As for `CO[C@@H](C)CN1CCN(c2ccc(-c3cc(-c4cnn(C)c4)cn4ncc(C#N)c34)cn2)CC1` [Example 415, (S)-4-(6-(4-(2-methoxypropyl)piperazin-1-yl)pyridin-3-yl)-6-(1-methyl-1H-pyrazol-4-yl)pyrazolo[1,5-a]pyridine-3-carbonitrile], the IC50 in test [1] (setting [4]) turned out to be 25.4 nM; in test [2], 2030 nM; in test [3] (wild type RET, 1 mM ATP) it was 25.2 nM.
Take `COC(=O)C1(C)CCN(c2ccc(-c3cc(-c4cnn(C)c4)cn4ncc(C#N)c34)cn2)CC1` [Example 254, Methyl 1-(5-(3-cyano-6-(1-methyl-1H-pyrazol-4-yl)pyrazolo[1,5-a]pyridin-4-yl)pyridin-2-yl)-4-methylpiperidine-4-carboxylate]: the IC50 worked out at 12.3 nM in test [1] (setting [5]); 446 nM in test [2] (10% FBS); 9.2 nM in test [3] (wild type RET, 1 mM ATP).
With `Cn1cc(-c2cc(-c3ccc(N4CCC(C)(N)CC4)nc3)c3c(C#N)cnn3c2)cn1` [Example 202, 4-(6-(4-amino-4-methylpiperidin-1-yl)pyridin-3-yl)-6-(1-methyl-1H-pyrazol-4-yl)pyrazolo[1,5-a]pyridine-3-carbonitrile dihydrochloride], the IC50 in test [1] (setting [5]) was found to be 110 nM; in test [2] (10% FBS), 992 nM; in test [3], 41.7 nM.
`COc1ccc(CN2CCN(c3ccc(-c4cc(-c5cnn(C[C@@H](C)O)c5)cn5ncc(C#N)c45)cn3)CC2)cn1` [Example 700, (R)-6-(1-(2-hydroxypropyl)-1H-pyrazol-4-yl)-4-(6-(4-((6-methoxypyridin-3-yl)methyl)piperazin-1-yl)pyridin-3-yl)pyrazolo[5-a]pyridine-3-carbonitrile]: the IC50 in test [1] (setting [4]) is 5.3 nM; in test [2], 347 nM; in test [3] (wild type RET, 1 mM ATP) it was 16.8 nM.
In the case of `CC(C)NC(=O)CC1CCN(c2ccc(-c3cc(-c4cnn(C)c4)cn4ncc(C#N)c34)cn2)CC1` [Example 249, 2-(1-(5-(3-cyano-6-(1-methyl-1H-pyrazol-4-yl)pyrazolo[1,5-a]pyridin-4-yl)pyridin-2-yl)piperidin-4-yl)-N-isopropylacetamide], the IC50 worked out at 33.5 nM in test [1] (setting [5]); 998 nM in test [2] (10% FBS); 26.6 nM in test [3] (wild type RET, 1 mM ATP).
With `Cn1cc(-c2cc(-c3ccc(N4CCC(C(=O)NCCC(F)(F)F)CC4)nc3)c3c(C#N)cnn3c2)cn1` [Example 242, 1-(5-(3-cyano-6-(1-methyl-1H-pyrazol-4-yl)pyrazolo[1,5-a]pyridin-4-yl)pyridin-2-yl)-N-(3,3,3-trifluoropropyl)piperidine-4-carboxamide], the half-maximal inhibitory concentration (IC50) was found to be 6.3 nM in test [1] (setting [5]); 223 nM in test [2] (10% FBS); 4.5 nM in test [3] (wild type RET, 1 mM ATP).
Consider `Cn1cc(-c2cc(-c3ccc(N4CCN(C(=O)CC(C)(C)C)CC4)nc3)c3c(Cl)cnn3c2)cn1` [Example 331, 1-(4-(5-(3-chloro-6-(1-methyl-1H-pyrazol-4-yl)pyrazolo[1,5-a]pyridin-4-yl)pyridin-2-yl)piperazin-1-yl)-3,3-dimethylbutan-1-one], for which the IC50 amounted to 148 nM in test [1] (setting [5]); 2350 nM in test [2] (10% FBS); 31.1 nM in test [3] (wild type RET, 1 mM ATP).
As to `CCC1(C(=O)NC(C)C)CCN(c2ccc(-c3cc(-c4cnn(C)c4)cn4ncc(C#N)c34)cn2)CC1` [Example 256, 1-(5-(3-cyano-6-(1-methyl-1H-pyrazol-4-yl)pyrazolo[1,5-a]pyridin-4-yl)pyridin-2-yl)-4-ethyl-N-isopropylpiperidine-4-carboxamide], the IC50 came to 4.5 nM in test [1] (setting [5]); 735 nM in test [2] (10% FBS); 12.9 nM in test [3] (wild type RET, 1 mM ATP).
`CC(C)C[C@H](O)C(=O)N1CCN(c2ccc(-c3cc(-c4cnn(C)c4)cn4ncc(C#N)c34)cn2)CC1` [Example 56, (S)-4-(6-(4-(2-hydroxy-4-methylpentanoyl)piperazin-1-yl)pyridin-3-yl)-6-(1-methyl-1H-pyrazol-4-yl)pyrazolo[1,5-a]pyridine-3-carbonitrile]: the IC50 in test [1] (setting [5]) came to 35.5 nM; in test [2] (10% FBS), 896 nM; in test [3] (wild type RET, 1 mM ATP), 16 nM.

These data come from patent US10023570B2 (Array BioPharma, Inc., priority 2015, dated 2018).
